The nature of data set [1]: Solubility of Compound 6A. Format: physicochemical. The conditions noted are these: for solubility: water, read-out: aqueous solubility.
The nature of data set [2]: Compound content, recovery and encapsulation efficiency by RP-HPLC. The format is physicochemical. To be noted: pellet vs supernatant after 10 mM HCl, 30 min.
Method: Compound 47 was analyzed by Reversed Phase High Performance Liquid Chromatography (RP-HPLC) using a Waters Acquity System using C18 XTerra column (Waters Corporation) and a gradient of 90% water+0.1% TFA/10% acetonitrile+0.1% TFA to 100% acetonitrile+0.1% TFA in 6 min.
To determine Compound 47 concentration, 100 μL of the particle suspension described above was mixed with 900 μL of DMSO and analyzed by RP-HPLC.
To determine encapsulation efficiency, 100 μL of the particle suspension described above was diluted to 1 mL with 10 mM HCl and rocked for 30 min at room temperature. The resulting particle suspension was centrifuged. The pellet was then dissolved in 1 mL DMSO and analyzed on the RP-HPLC system to determine the amount of encapsulated Compound 47. The supernatant was also analyzed on the RP-HPLC system to determine the amount of non-encapsulated Compound 47.
Data set [3] concerns MenB strain NZ98. Nature of the data set: Bactericidal assay of sera of immunized mice against the MenB strain NZ98. Format: in vivo, N. meningitidis. To be noted: delivered with PLG as encapsulated or as co-lyophilized, 25 or 100 μg. The protocol: The PLG formulations described above (Vials 1-6) were reconstituted in 1.4 mL of water for injection with gentle mixing. 100 μL of the formulations were injected per mouse, corresponding to 10 μg of each MenB antigen and in case of formulations containing Compound 47, 25 μg or 100 μg of the adjuvant. Each mouse was immunized intramuscularly (50 μL at two sites) on days 0 and 14, and bled on day 28 and on day 56.
For mice injected with MenB antigen, pooled sera for each group was analyzed for bactericidal assay against the MenB strain NZ98 2 weeks post 2nd immunization.
For mice injected with MenB antigen, pooled sera for each group was also analyzed for bactericidal assay against the MenB strain NZ98 6 weeks post 2nd immunization.

Data set [4] is described as follows: Pharmacokinetic profile of Compound 47 in mice (serum, lymph nodes, muscle; LC-MS). The format is in vivo. To be noted: i.m. once, 1 or 4 mg/kg, various PLG formulations (Vials 1-5), up to 30 days.
Data set [5] concerns mKC, MCP-1, IL-6, IL-10, IFNg and IL-5. Nature of the data set: Serum cytokine levels in mice (sandwich ELISA). The format is in vivo. The conditions noted are these: i.m., 1, 3 and 24 hours, formulated in the PLG-based particles. The protocol:
Mice were also injected intramuscularly with above-described monodispersion of Compound 47 at a dose of 100 μg Compound 47. Serum cytokine levels (mKC, MCP-1, IL-6, IL-10, IFNg and IL-5) were measured at 1, 3 and 24 hours using sandwich ELISA.
For orientation: An ELISA detects its analyte on a solid surface through an enzyme-linked reagent.

The target in data set [6] is T1, Human TLR7 (Homo sapiens, UniProt Q9NYK1).
T1 construct: expressed in transfected cells; host or cells: HEK293
T1 sequence (Q9NYK1 27-1049): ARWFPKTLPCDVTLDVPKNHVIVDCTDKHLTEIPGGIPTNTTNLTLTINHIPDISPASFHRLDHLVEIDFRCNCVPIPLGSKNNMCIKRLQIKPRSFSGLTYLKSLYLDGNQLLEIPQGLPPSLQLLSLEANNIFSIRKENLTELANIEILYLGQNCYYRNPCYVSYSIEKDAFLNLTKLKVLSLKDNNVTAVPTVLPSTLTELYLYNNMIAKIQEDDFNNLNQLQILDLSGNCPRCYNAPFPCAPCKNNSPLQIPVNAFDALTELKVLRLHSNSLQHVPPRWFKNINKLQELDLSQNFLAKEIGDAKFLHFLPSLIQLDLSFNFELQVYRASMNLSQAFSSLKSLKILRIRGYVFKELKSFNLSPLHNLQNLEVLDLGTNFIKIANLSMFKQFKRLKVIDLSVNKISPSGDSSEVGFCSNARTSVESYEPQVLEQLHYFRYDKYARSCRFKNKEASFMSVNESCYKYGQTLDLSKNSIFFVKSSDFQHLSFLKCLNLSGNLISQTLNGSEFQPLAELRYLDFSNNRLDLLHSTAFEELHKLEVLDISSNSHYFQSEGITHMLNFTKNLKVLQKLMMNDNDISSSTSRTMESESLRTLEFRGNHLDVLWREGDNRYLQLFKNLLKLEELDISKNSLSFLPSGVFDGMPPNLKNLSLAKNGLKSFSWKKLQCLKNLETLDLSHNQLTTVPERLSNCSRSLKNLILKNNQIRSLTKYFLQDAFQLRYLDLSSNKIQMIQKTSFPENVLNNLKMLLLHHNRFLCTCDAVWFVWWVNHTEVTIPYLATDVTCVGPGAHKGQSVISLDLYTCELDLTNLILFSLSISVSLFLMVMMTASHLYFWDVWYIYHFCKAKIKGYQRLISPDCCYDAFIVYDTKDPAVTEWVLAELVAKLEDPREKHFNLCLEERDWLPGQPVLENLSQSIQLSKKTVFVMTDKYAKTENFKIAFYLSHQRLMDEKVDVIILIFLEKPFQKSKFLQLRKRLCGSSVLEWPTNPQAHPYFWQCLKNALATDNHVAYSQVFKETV
Kind of data set: Human TLR7 EC50 in HEK293 (Table A). Format: cell-based.

Results on three compounds are retold here after patent US9517263B2, “Benzonaphthyridine-containing vaccines” (GlaxoSmithKline Biologicals SA, priority 2009, dated 2016).

For orientation: solubility means the concentration that dissolves in the medium under given conditions. A word on the EC50: it is the midpoint of the concentration-response curve. Higher therefore signals weaker potency.

SMILES strings stand for the structures. Like-named read-outs stand apart in the source and are kept apart here.

As for `Cc1ccc2c(c1)nc(N)c1ncc(CCc3ccc(OCCOCCOCCC(F)(F)P(=O)(O)O)cc3C)cc12` [Compound 6A, 3-(2-(2-(4-(2-(5-amino-8-methylbenzo[f][1,7]naphthyridin-2-yl)ethyl)-3-methylphenoxy)ethoxy)ethoxy)-1,1-difluoropropylphosphonic acid], in data set [1] (dichloromethane), the solubility in dichloromethane entry was “not soluble in dichloromethane”. Moreover, the solubility is less than 400 µg/mL in data set [1] (as base form) and greater than 4000 µg/mL in data set [1] (pH 7, as a sodium salt).
Regarding `Cc1ccc(CCc2cnc3c(N)nc4ccccc4c3c2)c(C)c1` [Compound 47, 2-(2,4-dimethylphenethyl)benzo[f][1,7]naphthyridin-5-amine], the “amount of Compound 47 encapsulated in PLG particles” value in data set [2] is recorded as greater than 90%. Also, in data set [3], the “protection of the immunized mice against strain NZ98” value is “significantly enhances the protection”. For the same compound, the “level of Compound 47 in serum” value in data set [4] is less than 1000 nM. Moreover, the “serum cytokine levels (mKC, MCP-1, IL-6, IL-10, IFNg and IL-5)” value in data set [5] was “low serum cytokines”.
Compound `COc1ccc(CCc2cnc3c(N)nc4cc(C(O)(P(=O)(O)O)P(=O)(O)O)ccc4c3c2)c(C)c1` [Compound 19A] displayed an EC50 in data set [6] of 23700 nM.
